Assay results as given in publication PMC10787893, “Expression and characterization of the new antimicrobial peptide AP138L-arg26 anti Staphylococcus aureus” (Applied Microbiology and Biotechnology, 2024).
Converted amounts (≈) assume the structure as drawn. Like-named read-outs stand apart in the source and are kept apart here. Bridge positions count the residues as written; N and C are the ends. Peptide text beside a SMILES is read from it.

Legend:
ICR mice = assay: Acute toxicity in mice; format: in vivo, mouse
Protocol: AP138L-arg26 was administrated by intraperitoneal injection (n = 4 per group, 10 mg/kg, body weight 25 g) every day for 1 week (Shi et al. [2022]). After 7 days, the mice were euthanized to collect anticoagulant whole-blood and tissues (liver, spleen, kidney, and lung), which were used for whole blood and biochemical detection, or tissue sections (hematoxylin-eosin (HE) staining), respectively.

S. aureus ATCC 43300 = assay: Post-antibiotic effect (PAE) assay; format: cell-based, Staphylococcus aureus
Source text: The method of PAE of AP138L-arg26 against MRSA ATCC 43300 or S. aureus CVCC 546 was described previously (Wang et al. [2018]). The formula is PAE = T − C (T is the time required for the number of colonies in the sample treatment group to increase by tenfold, and C is the time required for the untreated group).

S. aureus CVCC 546 [1] = assay: Potassium ion (K+) leakage, ICP-MS; format: cell-based, Staphylococcus aureus
Source text: The integrity effect of antimicrobial peptide AP138L-arg26 on bacterial cell membranes was further verified, and the K^+ leakage assay was previously described (Li et al. [2020]). Briefly, the main procedures were as follows: Firstly, prepare the S. aureus CVCC 546 bacteria suspension at a concentration of 1 × 10^8 CFU/mL. […] Finally, the supernatants were detected using inductively coupled plasma mass spectrometry (ICP-MS) (SantaClara, CA, USA).

[2] = system: mouse macrophages RAW264.7; assay: Cytotoxicity, MTT method; format: cell-based; conditions: 256 µg/mL; RAW264.7, MTT
Source text: The cytotoxicity of AP138L-arg26 to mouse macrophages RAW264.7 was detected by the thiazolyl blue tetrazolium bromide (MTT) method as described previously (Shen et al. [2021]).

S. aureus CVCC 546 [3] = assay: Serum stability, MIC after treatment; format: in vitro ADME, Staphylococcus aureus; conditions: then MIC
Source text: Table 4 The stability of AMPs in different environments | column: MIC

S. aureus CVCC 546 [4] = conditions: for FIC: FIC = MICc/MICa
Protocol: The synergistic effects of AP138L-arg26 with different antibiotics were evaluated using a checkerboard assay. The synergistic effect was calculated using the FICI as follows: FICI = FIC of AP138L-arg26 + FIC of antibiotic; FIC = MICc/MICa, where MICc is the MIC of the peptide and antibiotic in combination, and MICa is the MIC of the peptide/antibiotic alone (Blier et al. [2010]). Three parallel experiments were performed for each group. The efficacy of combination therapy was defined as FICI ≤ 0.5, 0.5 < FICI ≤ 1, 1 < FICI ≤ 4, and FICI > 4 indicating synergy, addition, no difference, and antagonism, respectively.

S. aureus CVCC 546 [5] = assay: Growth curve of S. aureus; format: cell-based, Staphylococcus aureus; conditions: AP138L-arg26 8 µg/mL (2 × MIC), ceftiofur sodium 0.25 µg/mL (1/8 MIC), alone or combined; 1 × 10^5 CFU/mL
Protocol: Samples were taken during the logarithmic growth of S. aureus and diluted to 1 × 10^5 CFU/mL (Delpech et al. [2019]). Different concentrations of AP138L-arg26, ceftiofur sodium, or a combination of them with an equal volume of bacteria were added to a 96-well microplate. The growth curves were recorded using a fully automatic growth curve recording instrument.

[6] = system: selected standard and clinical Gram-positive bacteria; assay: MIC/MBC summary over the panel of strains; format: cell-based, S. aureus, S. epidermidis, S. dysgalactiae, S. agalactiae
Protocol: To determine the MIC values of AP138L-arg26, we used the broth microdilution technique as previously described (Andrews. [2001]; Wiegand et al. [2008]). In brief, AP138L-arg26 peptide were diluted from 1280 to 2.5 µg/mL and added to a 96-cells plate with 10 µL per well. The bacteria in the logarithmic stage were diluted to 10^5 CFU/mL with 90 µL per well. […] The MBC method was also based on the CLSI 2021 guidelines.

S. aureus CVCC 546 [7] = assay: Artificial gastric juice stability, MIC after treatment; format: in vitro ADME, Staphylococcus aureus
S. aureus = assay: Membrane fluidity assay, Laurdan GP; format: cell-based, Staphylococcus aureus; conditions: 2 × MIC; 10 µM Laurdan; untreated 0.22
Protocol: The final concentration of 10 µM Laurdan was used to detect the effect of AP138L-arg26 on bacterial cell membrane fluidity (Shi et al. [2022]). Briefly, (1) co-incubation of bacteria with Laurdan; (2) the stained bacteria are co-incubated with the peptide; (3) spectrophotometer (Tecan, Männedorf, Switzerland) detection. The calculation formula: generalized polarization (GP) = (I435 − I490)/(I435 + I490).

CC[C@H](C)[C@@H]1NC(=O)[C@H](CO)NC(=O)[C@H](CCCCN)NC(=O)[C@@H]2CSSC[C@@H](C(=O)N[C@@H](Cc3ccc(O)cc3)C(=O)O)NC(=O)[C@H](CCCCN)NC(=O)[C@@H]3CSSC[C@H](NC(=O)[C@H](CCCNC(=N)N)NC(=O)[C@H](CC(C)C)NC(=O)[C@H](CC(=O)O)NC(=O)[C@H](CC(=O)O)NC(=O)[C@H](CCC(=O)O)NC(=O)[C@H](CO)NC(=O)[C@H](Cc4c[nH]c5ccccc45)NC(=O)[C@@H]4CCCN4C(=O)CNC(=O)[C@H](CC(N)=O)NC(=O)[C@@H](NC(=O)CNC(=O)[C@H](Cc4ccccc4)NC(=O)CN)CSSC[C@H](NC(=O)[C@H](Cc4ccc(O)cc4)NC(=O)CNC(=O)CNC(=O)[C@H](CCCNC(=N)N)NC(=O)[C@H](Cc4ccc(O)cc4)NC(=O)CNC(=O)[C@H](CCCCN)NC1=O)C(=O)N[C@@H](C)C(=O)N[C@@H](CCCCN)C(=O)NCC(=O)NCC(=O)N[C@@H](Cc1ccccc1)C(=O)N[C@@H](C(C)C)C(=O)N3)C(=O)N[C@@H](Cc1c[nH]cn1)C(=O)N[C@@H](CCCNC(=N)N)C(=O)N[C@@H](Cc1c[nH]cn1)C(=O)N2 [AP138L-arg26] (H-GFGCNGPWSEDDLRCHRHCKSIKGYRGGYCAKGGFVCKCY-OH; disulfide 4-30, 15-37, 19-39; N-terminus and C-terminus assumed)
histology (HE) of heart, kidney, spleen, lung and liver (ICR mice; 10 mg/kg i.p. daily for a week): no hyperemia, bleeding, hyperplasia, or other lesions
whole blood detection indexes and biochemical indexes compared with the control group (ICR mice; 10 mg/kg i.p. daily for a week): no significant differences
difference in biochemical index versus control (ICR mice; 10 mg/kg i.p. for 1 week): < 4%
difference in whole blood detection indexes versus control (ICR mice; 10 mg/kg i.p. for 1 week): < 4.5%
PAE (S. aureus ATCC 43300; 1 × MIC, PAE = T − C): 0.9 h
PAE (S. aureus ATCC 43300; 2 × MIC, PAE = T − C): 1.25 h
PAE (S. aureus ATCC 43300; 4 × MIC, PAE = T − C): 1.91 h
PAE (S. aureus ATCC 43300; as given in the abstract, concentration not given): 1.91 h
extracellular K+ leakage level (S. aureus CVCC 546 [1]; 2 × MIC, 37 °C, 1 × 10^8 CFU/mL, ICP-MS, untreated 0.02 mg/L): 0.05 mg/L
intracellular potassium leakage relative to control (S. aureus CVCC 546 [1]; as given in the abstract): 2.5 fold
cell viability [2]: over 75%
MIC, 25% serum (0.5 h) (S. aureus CVCC 546 [3]; peptide in 25% serum for 0.5 h): 8 µg/mL (≈ 1.8 µM)
MIC, 25% serum (1 h) (S. aureus CVCC 546 [3]; peptide in 25% serum for 1 h): 16 µg/mL (≈ 3.59 µM)
MIC, 25% serum (2 h) (S. aureus CVCC 546 [3]; peptide in 25% serum for 2 h): 16 µg/mL (≈ 3.59 µM)
MIC, 25% serum (4 h) (S. aureus CVCC 546 [3]; peptide in 25% serum for 4 h): 8 µg/mL (≈ 1.8 µM)
MIC, 25% serum (6 h) (S. aureus CVCC 546 [3]; peptide in 25% serum for 6 h): 16 µg/mL (≈ 3.59 µM)
MIC, 25% serum (8 h) (S. aureus CVCC 546 [3]; peptide in 25% serum for 8 h): 8 µg/mL (≈ 1.8 µM)
MIC, 50% serum (0.5 h) (S. aureus CVCC 546 [3]; peptide in 50% serum for 0.5 h): 8 µg/mL (≈ 1.8 µM)
MIC, 50% serum (1 h) (S. aureus CVCC 546 [3]; peptide in 50% serum for 1 h): 8 µg/mL (≈ 1.8 µM)
MIC, 50% serum (2 h) (S. aureus CVCC 546 [3]; peptide in 50% serum for 2 h): 8 µg/mL (≈ 1.8 µM)
MIC, 50% serum (4 h) (S. aureus CVCC 546 [3]; peptide in 50% serum for 4 h): 8 µg/mL (≈ 1.8 µM)
MIC, 50% serum (6 h) (S. aureus CVCC 546 [3]; peptide in 50% serum for 6 h): 8 µg/mL (≈ 1.8 µM)
MIC, 50% serum (8 h) (S. aureus CVCC 546 [3]; peptide in 50% serum for 8 h): 8 µg/mL (≈ 1.8 µM)
FIC (S. aureus CVCC 546 [4]; combination AP138L-arg26-Streptomycin sulfate): 0.5
FIC (S. aureus CVCC 546 [4]; combination AP138L-arg26-ampicillin): 1
FIC (S. aureus CVCC 546 [4]; combination AP138L-arg26-ceftiofur sodium): 0.0625
MICa (S. aureus CVCC 546 [4]; MIC of peptide/antibiotic alone, three parallel experiments): 4 µg/mL
MICc (S. aureus CVCC 546 [4]; in combination AP138L-arg26-Streptomycin sulfate): 2 µg/mL
MICc (S. aureus CVCC 546 [4]; in combination AP138L-arg26-ampicillin): 4 µg/mL
MICc (S. aureus CVCC 546 [4]; in combination AP138L-arg26-ceftiofur sodium): 0.25 µg/mL
effect on the growth of S. aureus CVCC 546 (S. aureus CVCC 546 [5]): little effect on the growth
MIC against Streptococcus ([6]; Streptococcus strains): 4 µg/mL (≈ 0.898 µM)
MBC relative to MIC ([6]; over the strains of Table 2): around fourfold higher than MICs
MIC against S. aureus ([6]; range over S. aureus strains): 2 to 16 µg/mL
MIC against selected standard and clinical Gram-positive bacteria ([6]; range over all strains of Table 2): 2 to 16 µg/mL
MIC against selected standard and clinical Gram-positive bacteria ([6]; range over all strains, converted from µg/mL): 0.45 to 3.6 µM
antimicrobial activity after gastric juice (S. aureus CVCC 546 [7]; artificial gastric juice, MIC assay): unaffected
MIC, Gastric juice (0.25 h) (S. aureus CVCC 546 [7]; peptide in artificial gastric juice for 0.25 h, then MIC assay): 4 µg/mL (≈ 0.898 µM)
MIC, Gastric juice (0.5 h) (S. aureus CVCC 546 [7]; peptide in artificial gastric juice for 0.5 h, then MIC assay): 4 µg/mL (≈ 0.898 µM)
MIC, Gastric juice (1 h) (S. aureus CVCC 546 [7]; peptide in artificial gastric juice for 1 h, then MIC assay): 4 µg/mL (≈ 0.898 µM)
MIC, Gastric juice (2 h) (S. aureus CVCC 546 [7]; peptide in artificial gastric juice for 2 h, then MIC assay): 8 µg/mL (≈ 1.8 µM)
Laurdan GP (S. aureus): 0.18
